Counter-ions that a name gives are not always drawn.
Tested on: human PRP (platelet rich plasma)
Test: Inhibition of platelet aggregation (human PRP, ADP-induced)
Type: cell-based
Settings: ADP 5 μM final as inducer, compound and PRP preincubated 2 minutes
Description: The structures of compounds obtained in Examples are as follows. The numbers of the compounds correspond to those of the examples. [drawing 11] Pharmacological test: Inhibition of platelet aggregation
The effect of the compound according to the present invention on inhibiting the platelet aggregation was examined with human PRP (platelet rich plasma).
Nine volumes of a blood sample was taken out of the vein of a normal human with a syringe in which one volume of a 3.8% sodium citrate solution was charged. The blood sample was centrifuged at 170×g at room temperature for 10 minutes. The supernatant thus obtained was isolated as PRP. The residual blood sample that PRP had been taken out was centrifuged at 2,700×g for 15 minutes. The supernatant was then taken as platelet poor plasma (PPP).
Platelet aggregation test was conducted with an aggligometer (PAM-8C; manufactured by MEBANICKS Co., Ltd.). Compounds to be tested were dissolved in a 50% DMSO saline, a 50% methanol saline or physiological saline. The compound and PRP were preincubated for 2 minutes. The ADP (CHRONO-PAR REAGENTS 384 ADP, CHRONO-LOG Corp.) was used as an inducer in the form of a dilution with saline so that the final concentration is 5 μM.
Anti-platelet aggregation activity was obtained as an inhibition rate to platelet aggregation effect of ADP in the absence of a compound to be tested as follows: [formula]

`O=C(O)COc1ccc(C(=O)CN2CC(=O)N(C3CCNCC3)CC2=O)cc1` [Example 12, 4-[[4-(piperidin-4-yl)-2,5-dioxopiperazin-1-yl]acetyl]phenoxyacetic acid hydrochloride] was tested. Which IC50 did it give?
The IC50 was 1200 nM.

Which IC50 does the source give for `O=C(O)COc1ccc(C(=O)CN2CCN(C3CCNCC3)CC2=O)cc1` [Example 5] here?
Its IC50 is 32 nM.

Which IC50 does the source give for `CCCCOC(=O)COc1ccc(C(=O)CN2CC(=O)N(C3CCNCC3)CC2=O)cc1` [Example 11] here?
The IC50 was 1100 nM.

Which IC50 does the source give for `O=C(O)COc1ccc(C(=O)CN2C(=O)CN(C3CCNCC3)CC2=O)cc1` [Example 8, 4-[[4-(piperidin-4-yl)-2,6-dioxopiperazin-1-yl]acetyl]phenoxyacetic acid hydrochloride] here?
The IC50 was 19 nM.

`O=C(O)COc1ccc(C(=O)CN2CCN(C3CCNCC3)CC2=O)cc1OCC(=O)O` [Example 1, [[4-[[4-(piperidin-4-yl)-2-oxopiperazin-1-yl]acetyl]-o-phenylene]dioxy]diacetic acid trifluoroacetate] was tested. Which IC50 did it give?
Its IC50 is 55 nM.

How did the IC50 turn out when `O=C(O)COc1ccc(C(=O)CN2CCN(C3CCNCC3)CC2)cc1OCC(=O)O` [Example 3, [[4-[4-(piperidin-4-yl)piperazin-1-yl]acetyl]-o-phenylene]dioxy]diacetic acid trifluoroacetate] was run?
Its IC50 is 150 nM.

Which IC50 does the source give for `O=C(O)COc1ccc(C(=O)CN2CCN(C3CCNCC3)C(=O)C2=O)cc1` [Example 10, 4-[[4-(piperidin-4-yl)-2,3-dioxopiperazin-1-yl]acetyl]phenoxyacetic acid.hydrochloride] here?
The IC50 was 470 nM.

With `CCOC(=O)COc1ccc(C(=O)CN2CCN(C3CCNCC3)CC2=O)cc1` [Example 14, ethyl 4-[[4-(piperidin-4-yl)-2-oxopiperazin-1-yl]acetyl]phenoxyacetate] as the compound, how does the IC50 read?
The IC50 was 250 nM.

For `O=C(O)COC1CCN(C(=O)CN2CCC(N3CCNCC3)CC2)CC1` [Example 6, [[1-[4-(piperazin-4-yl)piperidin-1-yl]acetyl]piperidin-4-yl]oxyacetic acid trifluoroacetate], which IC50 is on record?
The IC50 was 2300 nM.

With `CCCCOC(=O)COc1ccc(C(=O)CN2CCN(C3CCNCC3)CC2=O)cc1` [Example 13, n-butyl 4-[[4-(piperidin-4-yl)-2-oxopiperazin-1-yl]acetyl]phenoxyacetate dihydrochloride] as the compound, how does the IC50 read?
Its IC50 is 49 nM.

For `O=C(O)CCc1ccc(C(=O)CN2CCN(C3CCNCC3)CC2=O)cc1` [Example 16, 3-[4-[[4-(piperidin-4-yl)-2-oxopiperazin-1-yl]acetyl]phenyl]propionic acid trifluoroacetate], which IC50 is on record?
The IC50 was 420 nM.

How did the IC50 turn out when `CCCCOC(=O)COc1ccc(C(=O)CN2C(=O)CN(C3CCNCC3)CC2=O)cc1` [Example 7, n-butyl 4-[[4-(piperidin-4-yl)-2,6-dioxopiperazin-1-yl]acetyl]phenoxyacetate hydro chloride] was run?
The IC50 was 240 nM.

How did the IC50 turn out when `CCOC(=O)COc1ccc(C(=O)CN2CCN(C3CCN(Cc4oc(=O)oc4C)CC3)CC2=O)cc1` [Example 15, ethyl 4-[[4-[1-(5-methyl-2-oxodioxol-4-yl)methylpiperidin-4-yl]-2-oxopiperazin-1-yl]acetyl]phenoxyacetate] was run?
The IC50 was 300 nM.

`O=C(O)COC1CCN(C(=O)CN2CCN(C3CCNCC3)CC2=O)CC1` [Example 2, [[1-[4-(piperidin-4-yl)-2-oxopiperazin-1-yl]acetyl]piperidin-4-yl]oxyaceticacid trifluoroacetate] was tested. Which IC50 did it give?
Its IC50 is 80 nM.

`CCOC(=O)COc1ccc(C(=O)CN2CCN(C3CCNCC3)CC2=O)cc1OCC(=O)OCC` [Example 4] was tested. Which IC50 did it give?
The IC50 was 560 nM.

Which IC50 does the source give for `CCCCOC(=O)COc1ccc(C(=O)CN2CCN(C3CCNCC3)C(=O)C2=O)cc1` [Example 9, n-butyl 4-[[4-(piperidin-4-yl)-2,3-dioxopiperazin-1-yl]acetyl]phenoxyacetate hydro chloride] here?
Its IC50 is 1200 nM.

— US5814636A, “Compounds with platelet aggregation inhibitor activity” (Meiji Seika Kabushiki Kaisha, priority 1994, dated 1998)
